Assay results from patent US7534607B1, “Method of producing cardiomyocytes from mesenchymal stem cells” (Industrial Technology Research Institute, priority 2005, dated 2009).

Legend:
[1] = background statement; cited from earlier work
porcine mixed MSCs = experiment: Cardio differentiation (myotube formation) of mixed MSCs by differentiation agents; assay type: cell-based; conditions: 4 weeks of culture, 5-azacytidine 3 μM, ascorbic acid 1 mM
Method: Porcine bone marrow mononucleated cells were purified according to a protocol described by Haynesworth et al (Haynesworth et al., (1992) Bone 13(1), 81-8). Briefly, bone marrows from posterior iliac crest bones of three 6-8 months old Lee-Sung miniature pigs (Luh et al., (2000) Transplantation 69(10), 2019-2027) ([…]) were aspirated into syringes that contained 6,000 unit heparin. The marrow samples were diluted in a ratio of 1:1 with HBSS (Gibco) and loaded onto 1.073 g/mL Ficoll solution (Amersham) in 50 mL centrifugations tubes and were centrifuged at 2,000 rpm for 40 min at room temperature. The mononucleated cells were collected from upper and interface layers, and washed with HBSS (Gibco) twice. Subsequently, the cells were cultured in αMEM (Hyclone) medium containing 100 unit/ml penicillin, 100 μg/ml streptomycin (Gibco) and 20% fetal bovine serum (FBS) from a selected lot (Gibco, Lot No.: 1149239) at 37° C. in humid air with 5% CO2. After a series of continuously cultures, the non-adhesive cells were removed by medium change. Porcine mixed mesenchymal stem cells (MSCs) thus obtained may be used directly in the differentiation experiment of example 1.3 and can be successfully propagated for at least 2 months. […]

[2] = tested on: embryonic stem cells (ESCs); conditions: ascorbic acid 0.01 mM; other antioxidants compared; Takahashi et al 2003; cited from earlier work
[3] = tested on: myogenic associated genes in MSCs; experiment: RT-PCR of myogenic associated genes; assay type: cell-based, porcine
Method: (§1) The effect of ascorbic acid on the expression of myogenic associated genes and proteins were examined by Reverse-transcription polymerase chain reaction (RT-PCR) (FIG. 5) and western blot (FIG. 6), respectively.
RT-PCR Total RNA was extracted from differentiated MSCs using a RNA mini Kit (e.g., QIAGEN). Subsequently, cDNA was synthesized from 1 μg of extracted total RNA using a ThermoScript RT-PCR kit (Invitrogen). The PCR reaction was carried out with Taq DNA polymerase (Invitrogen). Reverse-transcription polymerase chain reaction (RT-PCR) of myogenic associated genes, including actin, alpha 1, skeletal muscle (ACTA), actin, alpha, cardiac muscle (ACTC) (Kubalak et al., (1994) J. Biol. Chem. 269(24), 16961-16970), mef-2c, mef-2d (Skerjanc et al., (1998) J. Biol. Chem. 273(52), 34904-34910), myogenin (Wright et al., (1989) Cell 56(4), 607-617), nkx2.5 (Lints et al., (1993) […]) and tef-1 (Chen et al., (1994) Genes Dev 8(19), 2293-2301), were performed on the differentiated cell samples (Table 1). The relative expression level of glyceraldehyde 3-phosphate dehydrogenase (GAPDH) was used as an internal control for each sample, and porcine heart and skeletal muscle cells were used as a positive control of differentiation pathway. A spectrophotometer (Amersham Bioscience) and Agilent 2100 Bioanalyzer (Agilent Technologies) were used to measure the total RNA of concentration and integrity, respectively. Results were illustrated in FIG. 5.

[4] = tested on: cardiac troponin I in fast growing BMSC clones; experiment: Western blot of cardiac troponin I and connexin43; assay type: cell-based, porcine; conditions: fast growing BMSC clone No. 1 treated with ascorbic acid
Method: as §1
Western Blot Total protein from the differentiated MSCs were extracted with cell lysis buffer (Pierce) containing 1× protease inhibitor cocktail (Roche). Protein concentration was determined by a Bio-Rad protein assay kit. Samples were boiled for 5 minutes and then subjected to 12.5% polyacrylamide gel electrophoresis. Proteins in gel were electrophoretically transferred to polyvinylidene diflouride membrane (PVDF, Millipore) at 4° C. for overnight in 25 mM Tris, 190 mM glycine (pH 8.3) containing 0.01% SDS and 10% methanol. The membrane was blocked with 5% non-fat milk to prevent nonspecific binding and then incubated with one of […] primary antibodies. Subsequently, the membrane was stained with primary antibodies that were against cardiac troponin I (at a dilution of 1:1000) and connexin43 (at a dilution of 1:2000) (Chemicon) (Makino et al., (1999) J. Clin. Invest. 103(5), 697-705), respectively, for 1 hour at room temperature. […] Bound antibodies were recognized by horseradish peroxidase-conjugated goat anti-mouse IgG and ECL reagent (Pierce), and detected by chemiluminescent detection.

[5] = tested on: single BMSCs clones (fast-growing and slow-growing) and mixed MSCs; experiment: Cardiogenic potential of mixed MSCs and single BMSCs clones under ascorbic acid; assay type: cell-based, porcine; conditions: 4 weeks
Method: The porcine mixed MSCs of example 1.1 were collected from upper and interface layers, and then seeded at limited dilution into culture. Briefly, 1×10^4 mononucleated cells were plated in each well of a 96-multiwell plate, washed with HBSS (Gibco) twice, and then cultured in αMEM (Hyclone) containing 20% FBS from selected lots at 37° C. in humid air with 5% CO2. Non-adhesive cells were removed by medium change and the number of the remaining cells attached to the bottom of culture wells was examined under the microscope. Clones from wells containing only a single cell attached were chosen for further study. The isolated cells were further cultured for 3 passages, and then frozen in liquid nitrogen until the differentiation studies.
For selecting the fast-growing single BMSCs clones, the nucleated cells were seeded onto 1,000 wells following limited dilution in culture (10^4 cells/well), and 120 clones, each of which was derived from a single attached cell in the well, were obtained. Morphologically, all of the clones comprised a relatively homogeneous population of fibroblast-like cells at subconfluence, while at confluence the cells appeared more polygonal and formed a tight packed monolayer.
To examine the cardiogenic potential of single BMSCs clones, mixed MSCs of example 1.1 and isolated single BMSCs clones of example 1.2 (both fast-growing clones of clones 1-4 and slow-growing clones of clones 5-8) were cultured in the presence of 1 mM ascorbic acid for 4 weeks, and one representative result was illustrated in FIG. 3. Before ascorbic acid treatment, there were no differences in terms of morphology among mixed population of MSCs (FIG. 3A), fast-growing clone No. 1 (FIG. 3B) and slow-growing clone No. 8 (FIG. 3C), respectively.

differentiated MSCs = experiment: Myotube formation detected by immunohistochemistry (phallacidin / propidium iodide staining); assay type: cell-based, porcine; conditions: differentiated MSCs after ascorbic acid induction, confocal microscopy
Method: To further verify the myotube formation by ascorbic acid induction, the differentiated MSCs were stained with fluorescent phallacidin, which binds to F-actin, to reveal the formed myofibrils under phase contrast microscope (FIG. 4A) and fluorescence microscope (FIGS. 4B, 4C, and 4D), respectively. Briefly, the differentiated MSCs were washed three times with PBS for 3 minutes and the cells were then fixed with 4% paraformaldehyde for 15 min, and normalized with 0.1M glycine for 5 min, and permeabilized with 0.1% Tween 20 for 1 min. The myotube formation was confirmed by treating with alexa flour 488-conjugate phallacidin (Molecular Probes) for 20 min at room temperature. The cells were then washed two or more times with PBS. The multi-nucleate myotubes were stained by propidium iodide (Sigma) for 5 min at room temperature. After washing, they were mounted and observed under confocal laser scanning microscopy, and the multinucleated myotubes, which are one of the characteristics of fused myogenic cells, were detectable by propidium iodide staining (FIGS. 4B, 4C, and 4D).

[6] = MSCs after ascorbic acid treatment
[7] = over the course of differentiation

In the case of `Nc1ncn([C@@H]2O[C@H](CO)[C@@H](O)[C@H]2O)c(=O)n1` [5-azacytidine], the cytotoxicity [1] is given as “cytotoxic” and the “differentiation rate (formation of myotubes)” value (porcine mixed MSCs) is given as “about 10%”.

In the case of `CC(=O)N[C@@H](CS)C(=O)O` [N-acetylcysteine], the “induction of differentiation of ESCs into cardiomyocytes” value [2] is given as “not mimicked”.

For `O=S(=O)(O)c1cc(O)c(O)c(S(=O)(=O)O)c1` [Tiron], the “induction of differentiation of ESCs into cardiomyocytes” value [2] is given as “not mimicked”.

With `O=C1O[C@H]([C@@H](O)CO)C(O)=C1O` [ascorbic acid] the “expression of ACTA gene” value [3, 6] was “increased significantly”, the “expression of mef-2d gene” value [3, 6] was “increased significantly” and the “expression of myogenin gene” value [3, 6] was “increased significantly”. For the same molecule, the “expression of ACTC gene” value [3, 7] was “no significant change”, the “expression of mef-2c gene” value [3, 7] was “no significant change” and the “expression of nkx2.5 gene” value [3, 7] was “no significant change”. For the same molecule, the “expression of cardiac troponin I protein” value [4] was “expression of a heart specific protein, i.e., cardiac troponin 1”, the “induction of differentiation of ESCs into cardiomyocytes” value [2] was “induction of differentiation of ESCs into cardiomyocytes” and the “morphology after ascorbic acid treatment” value ([5]; fast-growing clone No. 1, 1 mM ascorbic acid) was “started to form myotube-like structures from the third week”. For the same molecule, the “morphology after ascorbic acid treatment” value ([5]; mixed MSCs, 1 mM ascorbic acid) was “started to form myotube-like structures from the third week”, the “morphology after ascorbic acid treatment” value ([5]; slow-growing clone No. 8, 1 mM ascorbic acid) was “retained a fibroblast-like morphology after 4 weeks” and the “differentiation rate (formation of myotubes)” value (porcine mixed MSCs) was roughly 25%. The “multinucleated myotubes by propidium iodide staining” value (differentiated MSCs) was “detectable”.

In the case of vitamin E, the “induction of differentiation of ESCs into cardiomyocytes” value [2] is given as “not mimicked”.
